Measured values published in patent US20090214607A1, “Topical use of teprenone” (SEDERMA, priority 2005, published 2009).

Legend:
[1] = Lipid peroxidation of liposomes using UVA radiation; type: biochemical; details: UVA induced, vs negative control
Protocol: In order to determine the action of teprenone as per the invention, the effect of the active substance on the lipid peroxidation of liposomes was analyzed. The liposomes were used to model cutaneous lipids.
In this method, liposomes are exposed to the test compound and then to UV A radiation. Peroxidation is determined by spectrophotometry at 233 nm.

[2] = tested on: Thioredoxin; assay: Thioredoxin in cellular supernatant of human fibroblasts (ELISA), with or without UVA; type: cell-based; details: for Thioredoxin rate in cellular supernatant: 10^−3%
Protocol: Normal human fibroblasts were tested to ascertain whether exposure to teprenone would stimulate thioredoxin expression in the cellular supernatants.
Human fibroblasts (FHN) in culture were irradiated with UVA (4 and 6 J/cm^2) or not irradiated (control). 24 h before the irradiation, these cells were grown without or with teprenone (GGA at 10^−3%). After irradiation, each case received the same medium (with or without GGA) as before irradiation. Incubations of 24 or 48 h with these fresh mediums were made. Thioredoxin in the cellular supernants was estimated using ELISA method. The results obtained are recapitulated in Table 3

[3] = tested on: Normal human fibroblasts (NHF); assay: Replicative senescence: variation of division number; type: cell-based; details: 1 and 3 μM; long-term contact; 64th day to 95th day
Protocol: Replicative senescence reflects the aging of cells in cultures as they are serially sub-cultured. Normal human fibroblasts (NHF) were cultured in the absence or presence of 1 and 3 μM teprenone. At regular intervals, without awaiting confluence, the cells were counted, observed and sub-cultured at the same rate.

[4] = tested on: Normal human fibroblasts (FHN); assay: Replicative capacity of serially sub-cultured fibroblasts; type: cell-based
From the text: Normal human fibroblasts are able to divide a limited number of times: according to the literature, 30 times approximately. Progressively, the cells change morphology and become less and less suited to the mitosis: time between 2 mitoses lengthens, the cellular metabolism is very slowed down, the cells are known as senescent.
Normal human fibroblasts (FHN) are cultivated until the “12th cycle” in order to begin the tests with cells already part-time from the duration life (=12 cycles of replication on 30 cycles), they are then separate in 3 batches: The batch control, the batch treated daily by 1 μM of teprenone and the batch daily treated with 3 μM of teprenone.
Each plate contains ˜50 000 cells and the cells cultivated in medium DMEM, until confluency or until obtaining enough cells for the taking away of 50 000 cells necessary to the following cycle. At each time the cells are collected by trypsinisation, are counted, and aliquot of 50 000 cells seeded for the following cycle. This cycle is repeated until it is no more possible to obtain cellular multiplication.

[5] = tested on: sunburn cells (SBC) in human skin explants; assay: Sunburn cells (SBC) in human skin explants after UVB; type: cell-based; details: for % SBC (Sun Burn Cells): after UVB 2 J/cm^2
Protocol: With a view to determining the action of teprenone as per the invention, the effect of the active substance on the presence of sunburn cells (SBC) and apoptotic cell in human skin explants was investigated.
Human skin explants are treated in a way similar to the preceding experiment of description of the protective role of the teprenone on the catalase activity (obtained from a patient having undergone plastic surgery, cultured with or without teprenone for 48 hours then exposed to UV B radiation (2 J/cm^2). After irradiation, the explants were again cultured in fresh medium with or without teprenone for 24 hours).
SBC were evidenced on paraffin-wax-embedded skin explant sections by staining with […]. SBC, apoptotic keratinocytes with pyknotic nuclei and eosinophilic cytoplasm, are characteristic of mammalian epidermis exposed to UV B radiation.

[6] = tested on: NHEK; assay: NHEK cell re-colonization after scraping and irradiation; type: cell-based, human; details: 3 · 10^−5%
Protocol: NHEK were inoculated into Labtech microplates and cultured to post-confluence with or without teprenone. The cultures were then mechanically scraped and exposed to radiation at a dose level of 0, 5 or 10 Gy. The percentage area re-colonized post-irradiation was determined.

[7] = tested on: human primary keratinocytes; assay: Gene expression profile by DNA array (CodeLink Whole Genome bioarray); type: cell-based
Protocol: Human primary keratinocyte cultures were prepared and incubated in the presence or absence of teprenone. The culture supernatants were withdrawn and the cell monolayers frozen at −80° C. The un-thawed monolayers were exposed to lysis buffer and the cell RNA extracted using a commercially-available kit (Roche kit V6: total RNA extraction). Solvent controls underwent the same extraction process in parallel. The expression profiles of the gene sequences were determined using a CodeLink Whole Genome bioarray for each sample of purified RNA. The values obtained were normalized relative to the controls.

## CC(=O)CCC=C(C)CCC=C(C)CCC=C(C)CCC=C(C)C [Teprenone, 6,10,14,18-tetramethyl-5,9,13-nonadecatetren-2-one]
[1]; concentration 3 · 10^−2%
  Variation of peroxydation: −77%
[1]; concentration 3 · 10^−3%
  Variation of peroxydation: −10%
[1]; concentration 3 · 10^−4%
  Variation of peroxydation: −22%
[1]; concentration 10^−2%
  Variation of peroxydation: −52%
[1]; concentration 10^−3%
  Variation of peroxydation: −12%
[2]; UVA 4 J/cm^2, incubation 24 h
  Thioredoxin rate in cellular supernatant: 24.3 ng/mg protein
[2]; UVA 4 J/cm^2, incubation 48 h
  Thioredoxin rate in cellular supernatant: 32.4 ng/mg protein
[2]; UVA 6 J/cm^2, incubation 24 h
  Thioredoxin rate in cellular supernatant: 43.7 ng/mg protein
[2]; UVA 6 J/cm^2, incubation 48 h
  Thioredoxin rate in cellular supernatant: 59.2 ng/mg protein
[2]; not irradiated, incubation 24 h
  Thioredoxin rate in cellular supernatant: 11.6 ng/mg protein
[2]; not irradiated, incubation 48 h
  Thioredoxin rate in cellular supernatant: 28.5 ng/mg protein
[2]; 24 h incubation, 4 J/cm^2
  increase of thioredoxin rate in the cellular supernatant: +30%
[2]; 24 h incubation, 6 J/cm^2
  increase of thioredoxin rate in the cellular supernatant: +40%
[2]; 24 h incubation, without irradiation
  increase of thioredoxin rate in the cellular supernatant: +60%
[2]; 48 h incubation, 4 J/cm^2
  increase of thioredoxin rate in the cellular supernatant: +50%
[2]; 48 h incubation, 6 J/cm^2
  increase of thioredoxin rate in the cellular supernatant: 40%
[2]; 48 h incubation, non irradiated
  increase of thioredoxin rate in the cellular supernatant: +150%
[3]
  capacities of divisions of the cells: level higher compared to the control
[4]; 1 μM
  cycle until which the fibroblasts remained more active: 22
  entry into marked senescence, later than the controls: 44 days
[4]; 1 μM, cycle 13 (7 d)
  Nb cells (×10^3): 204 ×10^3
[4]; 1 μM, cycle 14 (8 d)
  Nb cells (×10^3): 214 ×10^3
[4]; 1 μM, cycle 15 (11 d)
  Nb cells (×10^3): 199 ×10^3
[4]; 1 μM, cycle 16 (14 d)
  Nb cells (×10^3): 186 ×10^3
[4]; 1 μM, cycle 17 (13 d)
  Nb cells (×10^3): 164 ×10^3
[4]; 1 μM, cycle 18 (18 d)
  Nb cells (×10^3): 197 ×10^3
[4]; 1 μM, cycle 19 (17 ds)
  Nb cells (×10^3): 185 ×10^3
[4]; 1 μM, cycle 20 (14 d)
  Nb cells (×10^3): 124 ×10^3
  Replicative capac vs control: +13
[4]; 1 μM, cycle 21 (22 d)
  Nb cells (×10^3): 130 ×10^3
  Replicative capac vs control: +38
[4]; 1 μM, cycle 22 (20 d)
  Nb cells (×10^3): 146 ×10^3
  Replicative capac vs control: +117
[4]; 1 μM, cycle 23 (36 d)
  Nb cells (×10^3): 105 ×10^3
  Replicative capac vs control: +25
[4]; 1 μM, cycle 24 (28 d)
  Nb cells (×10^3): 66 ×10^3
  Replicative capac vs control: ns
[4]; 1 μM, cycle 25 (77 d)
  Nb cells (×10^3): 59 ×10^3
  Replicative capac vs control: ns
[4]; 3 μM
  cycle until which the fibroblasts retained their replicative potential: 24
  fibroblast lifetime extended with no impairment of replicative capacity: 100 days
  replicative potential retained, later than the controls: 100 days
[4]; 3 μM, after cycle 24
  activity of treated cells vs control cells after replicative potential began to subside: almost two-fold more active than the control cells
[4]; 3 μM, cycle 13 (7 d)
  Nb cells (×10^3): 213 ×10^3
[4]; 3 μM, cycle 14 (8 d)
  Nb cells (×10^3): 195 ×10^3
[4]; 3 μM, cycle 15 (11 d)
  Nb cells (×10^3): 140 ×10^3
[4]; 3 μM, cycle 16 (14 d)
  Nb cells (×10^3): 167 ×10^3
[4]; 3 μM, cycle 17 (13 d)
  Nb cells (×10^3): 166 ×10^3
[4]; 3 μM, cycle 18 (18 d)
  Nb cells (×10^3): 192 ×10^3
[4]; 3 μM, cycle 19 (17 ds)
  Nb cells (×10^3): 198 ×10^3
[4]; 3 μM, cycle 20 (14 d)
  Nb cells (×10^3): 145 ×10^3
  Replicative capac vs control: +33
[4]; 3 μM, cycle 21 (22 d)
  Nb cells (×10^3): 154 ×10^3
  Replicative capac vs control: +64
[4]; 3 μM, cycle 22 (20 d)
  Nb cells (×10^3): 157 ×10^3
  Replicative capac vs control: +134
[4]; 3 μM, cycle 23 (36 d)
  Nb cells (×10^3): 204 ×10^3
  Replicative capac vs control: +99
[4]; 3 μM, cycle 24 (28 d)
  Nb cells (×10^3): 115 ×10^3
  Replicative capac vs control: +79
[4]; 3 μM, cycle 25 (77 d)
  Nb cells (×10^3): 95 ×10^3
  Replicative capac vs control: 82
[5]; 0.05 mM
  % SBC (Sun Burn Cells): 45%
[5]; 0.1 mM
  % SBC (Sun Burn Cells): 27%
[5]; after UVB, vs irradiated
  diminution of SBC: −66%
[6]; 5 Gγ
  % on NHEK re-colonization 24 hours after: faster re-colonization
[6]; 5 Gγ, listed as GGA
  % on NHEK re-colonization 24 hours after: 80%
[6]; 10 Gγ
  % on NHEK re-colonization 24 hours after: 60%
[6]; not irradiated
  % on NHEK re-colonization 24 hours after: 62%
[7]; 24 hour period
  expression of CBX5/HP1: jointly activated
  expression of CDK2: jointly activated
  expression of ELAVL1: activation
  expression of ERBIN gene: up-regulated
  expression of PTPRF-interacting gene: up-regulated
  expression of SERTAD3: activated
  expression of gene SCLY: significantly up-regulated
  expression of gene for heat shock protein HSP 27: induction
  expression of gene for heat shock protein HSP B3: induction
[7]; cholesterol efflux and fatty acid synthesis
  genes activated, effect on cell lipid content: 6 genes
